Measurements: the NIST ThermoML archive (doi:10.1021/acs.jced.9b00078)
Numbers after ± are expanded uncertainties.

Assay: xn = mol fraction of the nth substance listed
Conditions: Liquid, Other PVT measurement

CCCCCCCCCCCCCCCC [hexadecane] + O=C=O
mass density [kg/m3]
Conditions	303.2 K	313.2 K	333.2 K	353.2 K	373.2 K	393.2 K	413.2 K	433.2 K	453.2 K	473.2 K
10000 kPa, x2 = 0.2555	780.45 ± 7.2	773.23 ± 7.2	758.92 ± 7.2	744.43 ± 7.2	729.96 ± 7.2	715.39 ± 7.2	700.19 ± 7.2	685.46 ± 7.2	670.23 ± 7.2	654.67 ± 7.2
10000 kPa, x2 = 0.3703	–	778.18 ± 7.2	759.26 ± 7.2	746.79 ± 7.2	731.25 ± 7.2	715.75 ± 7.2	698.68 ± 7.2	681.51 ± 7.2	664.54 ± 7.2	647.28 ± 7.2
20000 kPa, x2 = 0.2555	787.34 ± 7.2	780.1 ± 7.2	766.68 ± 7.2	753 ± 7.2	739.28 ± 7.2	725.96 ± 7.2	712.05 ± 7.2	698.1 ± 7.2	684 ± 7.2	670.22 ± 7.2
20000 kPa, x2 = 0.3703	793.48 ± 7.2	785.88 ± 7.2	771.19 ± 7.2	756.53 ± 7.2	742.07 ± 7.2	727.42 ± 7.2	712.39 ± 7.2	697.06 ± 7.2	681.26 ± 7.2	665.86 ± 7.2
30000 kPa, x2 = 0.2555	794.56 ± 7.2	787.59 ± 7.2	774.7 ± 7.2	761.96 ± 7.2	749.11 ± 7.2	736.15 ± 7.2	723.64 ± 7.2	710.65 ± 7.2	697.79 ± 7.2	684.48 ± 7.2
30000 kPa, x2 = 0.3703	801.32 ± 7.2	793.73 ± 7.2	780.08 ± 7.2	766.24 ± 7.2	752.26 ± 7.2	738.82 ± 7.2	725.13 ± 7.2	711.36 ± 7.2	697.06 ± 7.2	683.13 ± 7.2
30000 kPa, x2 = 0.7348	839.16 ± 7.2	828.9 ± 7.2	807.53 ± 7.2	785.71 ± 7.2	763.15 ± 7.2	741.75 ± 7.2	718.23 ± 7.2	696.05 ± 7.2	671.94 ± 7.2	647.71 ± 7.2
30000 kPa, x2 = 0.8645	872.71 ± 7.2	857.83 ± 7.2	827.32 ± 7.2	793.96 ± 7.2	758.29 ± 7.2	725.26 ± 7.2	688.46 ± 7.2	649.67 ± 7.2	613.21 ± 7.2	578.59 ± 7.3
40000 kPa, x2 = 0.2555	800.47 ± 7.2	793.9 ± 7.2	781.61 ± 7.2	769.42 ± 7.2	757.25 ± 7.2	745.02 ± 7.2	732.84 ± 7.2	721.13 ± 7.2	708.66 ± 7.2	696.75 ± 7.2
40000 kPa, x2 = 0.3703	807.74 ± 7.2	800.81 ± 7.2	787.53 ± 7.2	774.17 ± 7.2	761.32 ± 7.2	748.53 ± 7.2	735.68 ± 7.2	723.06 ± 7.2	709.8 ± 7.2	697.04 ± 7.2
40000 kPa, x2 = 0.7348	848.5 ± 7.2	839.65 ± 7.2	821.38 ± 7.2	800.32 ± 7.2	779.76 ± 7.2	758.8 ± 7.2	738 ± 7	717.02 ± 7.2	695.98 ± 7.2	675.69 ± 7.2
40000 kPa, x2 = 0.8645	885.49 ± 7.2	870.69 ± 7.2	840.65 ± 7.2	812.52 ± 7.2	785.33 ± 7.2	757.98 ± 7.2	729.63 ± 7.2	702.92 ± 7.2	673.61 ± 7.2	644.14 ± 7.2
50000 kPa, x2 = 0.2555	807.2 ± 7.2	800.32 ± 7.2	788.15 ± 7.2	776.26 ± 7.2	764.83 ± 7.2	753.11 ± 7.2	741.57 ± 7.2	730.38 ± 7.2	718.53 ± 7.2	707.53 ± 7.2
50000 kPa, x2 = 0.3703	814.58 ± 7.2	807.06 ± 7.2	794.36 ± 7.2	782.12 ± 7.2	769.45 ± 7.2	756.96 ± 7.2	744.66 ± 7.2	732.8 ± 7.1	720.85 ± 7.2	708.83 ± 7.2
50000 kPa, x2 = 0.7348	860.91 ± 7.2	850.12 ± 7.2	831.42 ± 7.2	812.92 ± 7.2	793.19 ± 7.2	773.38 ± 7.2	755.78 ± 7.2	736.34 ± 7.2	717.38 ± 7.2	698.15 ± 7.2
50000 kPa, x2 = 0.8645	900.22 ± 7.2	885.44 ± 7.2	859.09 ± 7.2	833.73 ± 7.2	810.58 ± 7.2	783.06 ± 7.2	759.09 ± 7.2	735.07 ± 7.2	709.83 ± 7.2	685.57 ± 7.2
